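Method: 48-hour compound exposure of cells in 96-well plates, five concentrations, linear interpolation of endpoints. GI50: concentration for 50% inhibition of growth. TGI: total growth inhibition.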
Experiments:
Assay in all cases: inhibition of tumour cell growth, NCI panel, 48 h
DU-145 prostate = system: DU-145 prostate
HOP-62 NSCLC = system: HOP-62 NSCLC
HT29 colon = system: HT29 colon
K-562 leukemia = system: K-562 leukemia
M14 melanoma = system: M14 melanoma
MDA-MB-435 = system: MDA-MB-435
OVCAR-3 ovarian = system: OVCAR-3 ovarian
OVCAR-8 ovarian = system: OVCAR-8 ovarian
SK-MEL-2 melanoma = system: SK-MEL-2 melanoma
UACC-257 melanoma = system: UACC-257 melanoma

| SMILES | GI50 (DU-145 prostate) | TGI (DU-145 prostate) | GI50 (HOP-62 NSCLC) | TGI (HOP-62 NSCLC) | GI50 (HT29 colon) | TGI (HT29 colon) | GI50 (K-562 leukemia) | TGI (K-562 leukemia) | GI50 (M14 melanoma) | TGI (M14 melanoma) | GI50 (MDA-MB-435) | TGI (MDA-MB-435) | GI50 (OVCAR-3 ovarian) | TGI (OVCAR-3 ovarian) | GI50 (OVCAR-8 ovarian) | TGI (OVCAR-8 ovarian) | GI50 (SK-MEL-2 melanoma) | TGI (SK-MEL-2 melanoma) | GI50 (UACC-257 melanoma) | TGI (UACC-257 melanoma) |
| --- | --- | --- | --- | --- | --- | --- | --- | --- | --- | --- | --- | --- | --- | --- | --- | --- | --- | --- | --- | --- |
| CC(C)(C)c1cc(C[P+](c2ccccc2)(c2ccccc2)c2ccccc2)cc(C(C)(C)C)c1O | 0.593 µM | 11.8 µM | 0.66 µM | 3.94 µM | 0.184 µM | 1.65 µM | 0.341 µM | 4.64 µM | 0.398 µM | 3.53 µM | 0.289 µM | 1.2 µM | 0.359 µM | 10.2 µM | 0.386 µM | 5.56 µM | 0.257 µM | 0.585 µM | 0.227 µM | 0.684 µM |
| N#Cc1c(N)nc2c(c1-c1ccc(Cl)cc1)COc1ccc(F)cc1-2 | 29.9 µM | > 100 µM | 25.1 µM | 75.2 µM | 39.4 µM | > 100 µM | 15.5 µM | 34.1 µM | 29.8 µM | 96.1 µM | 20.7 µM | 45.2 µM | 23.2 µM | 50.2 µM | 32.5 µM | > 100 µM | 19 µM | 64.2 µM | 29.4 µM | 90.8 µM |
| Nc1nc(Sc2ccc([N+](=O)[O-])c3nonc23)c2ncn(C3OC(CO)C(O)C3O)c2n1 (centres undefined) | 0.554 µM | 27.3 µM | 0.531 µM | > 100 µM | 0.846 µM | 16.2 µM | 0.279 µM | > 90.5 µM | 0.456 µM | 8.15 µM | 1.67 µM | > 57.1 µM | 2.17 µM | 24.6 µM | 0.794 µM | > 46 µM | 0.393 µM | 8.81 µM |  | > 44.8 µM |
| COc1cccc(S(=O)(=O)NC2=NCCN2C(=S)SN2CCn3c2nsc3=S)c1 | 44.2 µM | > 100 µM | 55.5 µM | > 100 µM | 40.2 µM | > 100 µM | 31.4 µM | 92.3 µM | 31.4 µM | > 100 µM | 37.3 µM | > 100 µM | 25.6 µM | 56.5 µM | 44.4 µM | > 100 µM | 68.2 µM | > 100 µM | 31.5 µM | 86.2 µM |
| CN1CCN(C)C1c1ccc(C2N(C)CCN2C)cc1 | 30.2 µM | > 100 µM | 82.8 µM | > 100 µM | 21.2 µM | 56.4 µM | 38.5 µM | > 100 µM | 18.6 µM | 58.2 µM | 34.5 µM | > 100 µM | 41.8 µM | > 100 µM | 38.4 µM | > 100 µM | > 100 µM | > 100 µM | > 100 µM | > 100 µM |
| CCNCC(=O)Nc1ccc2c(c1)C(=O)c1ccc(NC(=O)CNCC)cc1C2=O |  | 11.7 µM |  | 20 µM |  | 9.87 µM |  | 4.91 µM |  | 12.5 µM |  | 6.18 µM |  | 8.74 µM |  | 15.1 µM |  | 47.4 µM |  | 18.6 µM |
| COC(=O)CCc1n(Cc2ccc3ccccc3c2)c2ccccc2[n+]1Cc1ccc2ccccc2c1 | 1.45 µM | 3.34 µM | 1.66 µM | 3.46 µM | 0.571 µM | 1.97 µM | 0.379 µM | 1.63 µM | 0.524 µM | 2.04 µM | 0.462 µM | 1.8 µM | 0.682 µM | 2.15 µM | 1.27 µM | 3.02 µM | 1.23 µM | 2.72 µM | 0.549 µM | 2.37 µM |
| COc1ccc2c(n1)Sc1nc3ccccc3nc1N2 |  | > 100 µM |  | 79.5 µM |  | > 100 µM |  | > 100 µM |  | > 100 µM |  | > 100 µM |  | > 100 µM |  | 57 µM |  | > 100 µM |  | > 100 µM |
| CC(C)[C@@]12C[C@@H](OC(=O)C3CO3)[C@@](C)(O1)[C@@H]1CC[C@@H](C)[C@H]1[C@@H]2OC(=O)/C=C/c1ccccc1 (some centres undefined) | 26.4 µM | 72.9 µM | 21.2 µM | > 100 µM | 33.6 µM | > 100 µM | 33.2 µM | > 100 µM | 24.4 µM | 88.5 µM | 18.4 µM | 38.3 µM | 15.8 µM | 30 µM | 5.33 µM | 60.3 µM | 19.1 µM | 42.8 µM | 19.2 µM | 39.4 µM |
| Nc1nc(-c2cccnc2)cc(-c2cc(-c3cccnc3)nc(N)n2)n1 |  | > 100 µM |  | > 100 µM |  | > 100 µM |  | > 100 µM |  | > 100 µM |  | > 100 µM |  | > 100 µM |  | > 100 µM |  | > 100 µM |  | > 100 µM |

— PubChem BioAssay (NCI)
